Patent US20090264401A1, “SUBSTITUTED PYRIMIDIN-5-CARBOXAMIDES 281” (AstraZeneca AB, priority 2008, published 2009)

Each compound was assayed against T1, human 11βHSD1 enzyme (Homo sapiens, UniProt P28845) (assay: 11βHSD1 cortisone to cortisol conversion, competitive HTRF assay). Conditions: human 11-βHSD; test concentration of 30 μM of compound.
T1 construct: baculovirus expressed N terminal 6-His tagged full length human 11βHSD1 enzyme; 6-His (N); made in house
Type: biochemical
Description: The evaluation of compounds described herein was carried out using a baculovirus expressed N terminal 6-His tagged full length human 11βHSD1 enzyme(*1). The enzyme was purified from a detergent solubilised cell lysate, using a copper chelate column. Inhibitors of 11βHSD1 reduce the conversion of cortisone to cortisol, which is identified by an increase in signal, in the above assay.
Compounds to be tested were dissolved in dimethyl sulphoxide (DMSO) to 10 mM and diluted further in assay buffer containing 1% DMSO to 10 fold the final assay concentration. Diluted compounds were then plated into black 384 well plates (Matrix, Hudson N.H., USA).
Fluorescence at 665 nm and 620 nm was measured and the 665 nm:620 nm ratio calculated using an Envision plate reader.

T1 sequence (P28845 whole entry): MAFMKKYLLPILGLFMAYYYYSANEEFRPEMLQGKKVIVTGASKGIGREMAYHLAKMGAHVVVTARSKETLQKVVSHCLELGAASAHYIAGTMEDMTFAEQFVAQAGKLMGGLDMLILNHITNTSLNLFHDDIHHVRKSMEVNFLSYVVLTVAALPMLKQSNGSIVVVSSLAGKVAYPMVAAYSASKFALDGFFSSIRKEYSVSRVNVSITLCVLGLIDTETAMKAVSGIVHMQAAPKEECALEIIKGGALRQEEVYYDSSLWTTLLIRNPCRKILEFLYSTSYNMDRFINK

Going from `CCCSc1nc(N2CCC[C@@H](CC(=O)OC)C2)ncc1C(=O)NC1CCCCC1` [Example 19, (S)-Methyl 2-(1-(5-(cyclohexylcarbamoyl)-4-(propylthio)pyrimidin-2-yl)piperidin-3-yl)acetate] to `CCCSc1nc(N2CCN(S(C)(=O)=O)CC2)ncc1C(=O)NC1C2CC3CC(C2)CC1C3` (centres unmarked) [Example 28, N-(2-adamantyl)-2-(4-methylsulfonylpiperazin-1-yl)-4-propylsulfanyl-pyrimidine-5-carboxamide], the inhibition at 30 µM rises from 100% to 103%.

First: O=C(N[C@H]1C2CC3CC1C[C@@](O)(C3)C2)c1cnc(NC2CC2)nc1C1CCCC1 [Example 122, 4-cyclopentyl-2-(cyclopropylamino)-N-[(2r,5s)-5-hydroxyadamantan-2-yl]pyrimidine-5-carboxamide]
Second: O=C(N[C@H]1C2CC3CC1C[C@](O)(C3)C2)c1cnc(NC2CCC2)nc1C1CCCC1 [Example 129, 4-cyclopentyl-2-(cyclobutylamino)-N-[(2r,5s)-5-hydroxyadamantan-2-yl]pyrimidine-5-carboxamide]
The inhibition at 30 µM of the first is higher: 97.5% for the first, 95.5% for the second.

First: Cc1ncc(C(=O)N[C@H]2C3CC4CC2C[C@@](O)(C4)C3)c(C2CCC(F)(F)C2)n1 (some centres unmarked) [Example 184, 4-(3,3-Difluorocyclopentyl)-N-[(2r,5s)-5-hydroxyadamantan-2-yl]-2-methylpyrimidine-5-carboxamide]
Second: CNc1ncc(C(=O)N[C@H]2C3CC4CC2C[C@@](O)(C4)C3)c(C2CC(F)(F)C2)n1 [Example 154, 4-(3,3-difluorocyclobutyl)-N-[(2r,5s)-5-hydroxyadamantan-2-yl]-2-methylaminopyrimidine-5-carboxamide]
The inhibition at 30 µM of the first is higher: 108% for the first, 88% for the second.

First: CC(C)Oc1ncc(C(=O)N[C@H]2C3CC4CC2C[C@@](O)(C4)C3)c(C2CCCO2)n1 (some centres unmarked) [Example 165]
Second: CC(C)Oc1ncc(C(=O)N[C@H]2C3CC4CC2C[C@@](O)(C4)C3)c(C2CCC2)n1 [Example 107, 4-cyclobutyl-N-[(2r,5s)-5-hydroxyadamantan-2-yl]-2-isopropoxypyrimidine-5-carboxamide]
The inhibition at 30 µM of the first is higher: 105% for the first, 97.3% for the second.

Compared with `CCOc1nc(NC2CCC2)ncc1C(=O)N[C@H]1C2CC3CC1C[C@@](O)(C3)C2` [Example 212, 2-(cyclobutylamino)-4-ethoxy-N-[(2r,5s)-5-hydroxytricyclo[3.3.1.13,7]dec-2-yl]pyrimidine-5-carboxamide], `CC(C)Oc1nc(NC2CC2)ncc1C(=O)N[C@H]1C2CC3CC1C[C@@](O)(C3)C2` [Example 215, 2-(cyclopropylamino)-N-[(2r,5s)-5-hydroxytricyclo[3.3.1.13,7]dec-2-yl]-4-(1-methylethoxy)pyrimidine-5-carboxamide] is lower in inhibition at 30 µM: 105% for the first, 94.9% for the second.

First: NCc1ncc(C(=O)N[C@H]2C3CC4CC2C[C@@](O)(C4)C3)c(C2CCCC2)n1 [Example 152, 2-(Aminomethyl)-4-cyclopentyl-N-[(2r,5s)-5-hydroxyadamantan-2-yl]pyrimidine-5-carboxamide]
Second: CNc1ncc(C(=O)N[C@H]2C3CC4CC2C[C@@](O)(C4)C3)c(C2CCCC2)n1 [Example 118, 4-cyclopentyl-N-[(2r,5s)-5-hydroxyadamantan-2-yl]-2-methylaminopyrimidine-5-carboxamide]
The inhibition at 30 µM of the first is higher: 97.8% for the first, 93.7% for the second.

Compared with `O=C(N[C@H]1C2CC3CC1C[C@@](O)(C3)C2)c1cnc(N2CCC2)nc1N1CCC1` [Example 201, 2,4-bis(azetidin-1-yl)-N-[(2r,5s)-5-hydroxyadamantan-2-yl]pyrimidine-5-carboxamide], `O=C(N[C@H]1C2CC3CC1C[C@@](O)(C3)C2)c1cnc(N2CCS(=O)(=O)CC2)nc1C1CC1` [Example 37, 4-Cyclopropyl-2-(1,1-dioxo-1,4-thiazinan-4-yl)-N-[(2r,5s)-5-hydroxyadamantan-2-yl]pyrimidine-5-carboxamide] is lower in inhibition at 30 µM: 95% for the first, 93.5% for the second.

First: CCCSc1ncc(C(=O)N[C@H]2C3CC4CC2C[C@@](O)(C4)C3)c(N2C[C@@H](C)O[C@@H](C)C2)n1 [Example 24, 4-[(2S,6R)-2,6-Dimethylmorpholin-4-yl]-N-[(2r,5s)-5-hydroxyadamantan-2-yl]-2-propylsulfanylpyrimidine-5-carboxamide]
Second: CCCSc1nc(N2C[C@@H](C)O[C@@H](C)C2)ncc1C(=O)N[C@H]1C2CC3CC1C[C@@](O)(C3)C2 [Example 23, 2-[(2s,6r)-2,6-Dimethylmorpholin-4-yl]-N-[(2r,5s)-5-hydroxyadamantan-2-yl]-4-propylsulfanylpyrimidine-5-carboxamide]
The inhibition at 30 µM of the first is lower: 68% for the first, 97.4% for the second.

First: C[C@@H]1CN(c2ncc(C(=O)N[C@H]3C4CC5CC3C[C@@](O)(C5)C4)c(C3CCC3)n2)C[C@H](C)O1 [Example 92, 4-cyclobutyl-2-[(2R,6S)-2,6-dimethylmorpholin-4-yl]-N-[(2r,5s)-5-hydroxyadamantan-2-yl]pyrimidine-5-carboxamide]
Second: O=C(NC1C2CC3CC1CC(O)(C3)C2)c1cnc(N2C[C@@H]3C[C@H]2CO3)nc1C1CCC1 (stereo partly drawn) [Example 103, 4-cyclobutyl-N-[(2r,5s)-5-hydroxyadamantan-2-yl]-2-[(1S,4S)-2-oxa-5-azabicyclo[2.2.1]hept-5-yl]pyrimidine-5-carboxamide]
The inhibition at 30 µM of the first is higher: 97.1% for the first, 95.7% for the second.

Compared with `CN(C)c1ncc(C(=O)N[C@H]2C3CC4CC2C[C@@](O)(C4)C3)c(C2CCC2)n1` [Example 86, 4-cyclobutyl-2-(dimethylamino)-N-[(2r,5s)-5-hydroxyadamantan-2-yl]pyrimidine-5-carboxamide], `CSc1ncc(C(=O)N[C@H]2C3CC4CC2C[C@@](O)(C4)C3)c(C2CC2)n1` [Example 11, 4-Cyclopropyl-N-[(2r,5s)-5-hydroxyadamantan-2-yl]-2-methylsulfanyl-pyrimidine-5-carboxamide] is higher in inhibition at 30 µM: 97% for the first, 97.5% for the second.

First: CSc1ncc(C(=O)N[C@H]2C3CC4CC2C[C@@](O)(C4)C3)c([C@H]2CCCO2)n1 [Example 166, N-[(2r,5s)-5-hydroxyadamantan-2-yl]-2-methylsulfanyl-4-[(2R)-oxolan-2-yl]pyrimidine-5-carboxamide]
Second: Cc1ncc(C(=O)N[C@H]2C3CC4CC2C[C@@](O)(C4)C3)c(C2CCCO2)n1 (some centres unmarked) [Example 158, N-[(2r,5s)-5-hydroxyadamantan-2-yl]-2-methyl-4-(oxolan-2-yl)pyrimidine-5-carboxamide]
The inhibition at 30 µM of the first is higher: 102% for the first, 96.5% for the second.

First: Cc1ncc(C(=O)N[C@H]2C3CC4CC2C[C@@](O)(C4)C3)c(OC2CCC2)n1 [Example 203, 4-Cyclobutyloxy-N-[(2r,5 s)-5-hydroxyadamantan-2-yl]-2-methylpyrimidine-5-carboxamide]
Second: Cc1ncc(C(=O)N[C@H]2C3CC4CC2C[C@@](O)(C4)C3)c(OC2CCCC2)n1 [Example 204, 4-Cyclopentyloxy-N-[(2r,5s)-5-hydroxyadamantan-2-yl]-2-methylpyrimidine-5-carboxamide]
The inhibition at 30 µM of the first is lower: 98.6% for the first, 106% for the second.

First: O=C(N[C@H]1C2CC3CC1C[C@@](O)(C3)C2)c1cnc(NC2CCC2)nc1[C@H]1CCCO1 [Example 175, 2-(cyclobutaylamino)-N-[(2r,5s)-5-hydroxyadamantan-2-yl]-4-[(2R)-oxolan-2-yl]pyrimidine-5-carboxamide]
Second: O=C(N[C@H]1C2CC3CC1C[C@@](O)(C3)C2)c1cnc(NC2CCC2)nc1C1CCCO1 (some centres unmarked) [Example 162, 2-(cyclobutylamino)-N-[(2r,5s)-5-hydroxyadamantan-2-yl]-4-(oxolan-2-yl)pyrimidine-5-carboxamide]
The inhibition at 30 µM of the first is higher: 103% for the first, 97.7% for the second.

First: O=C(N[C@H]1C2CC3CC1C[C@@](O)(C3)C2)c1cnc(NC2COC2)nc1C1CCCO1 (some centres unmarked) [Example 164, N-[(2r,5s)-5-hydroxyadamantan-2-yl]-2-(oxetan-3-ylamino)-4-(oxolan-2-yl)pyrimidine-5-carboxamide]
Second: O=C(N[C@H]1C2CC3CC1C[C@@](O)(C3)C2)c1cnc(N[C@@H]2CCOC2)nc1C1CCCC1 [Example 142, 4-cyclopentyl-N-[(2r,5s)-5-hydroxyadamantan-2-yl]-2-[[(3R)-oxolan-3-yl]amino]pyrimidine-5-carboxamide]
The inhibition at 30 µM of the first is lower: 98.9% for the first, 99.7% for the second.

Going from `O=C(N[C@H]1C2CC3CC1C[C@@](O)(C3)C2)c1cnc(N2CCS(=O)(=O)CC2)nc1C1CCCCC1` [Example 198, 4-Cyclohexyl-2-(1,1-dioxidothiomorpholin-4-yl)-N-[(2r,5s)-5-hydroxyadamantan-2-yl]pyrimidine-5-carboxamide] to `COCCN1CCN(c2ncc(C(=O)N[C@H]3C4CC5CC3C[C@](O)(C5)C4)c(C3CCCC3)n2)CC1` [Example 125, 4-cyclopentyl-N-[(2r,5s)-5-hydroxyadamantan-2-yl]-2-[4-(2-methoxyethyl)piperazin-1-yl]pyrimidine-5-carboxamide], the inhibition at 30 µM rises from 94% to 95%.

Going from `CC(C)N1CCN(c2ncc(C(=O)N[C@H]3C4CC5CC3C[C@@](O)(C5)C4)c(C3CCCC3)n2)CC1=O` [Example 127, 4-cyclopentyl-N-[(2r,5s)-5-hydroxyadamantan-2-yl]-2-(3-oxo-4-propan-2-ylpiperazin-1-yl)pyrimidine-5-carboxamide] to `CN1CCN(CCNc2ncc(C(=O)N[C@H]3C4CC5CC3C[C@@](O)(C5)C4)c(C3CC3)n2)CC1` [Example 74, 4-cyclopropyl-N-[(2r,5s)-5-hydroxyadamantan-2-yl]-2-{[2-(4-methylpiperazin-1-yl)ethyl]amino}pyrimidine-5-carboxamide], the inhibition at 30 µM falls from 103% to 88.5%.

With `O=C(N[C@H]1C2CC3CC1C[C@@](O)(C3)C2)c1cnc(OC2CCC2)nc1C1CC(F)(F)C1` [Example 157] the inhibition at 30 µM was 87.1%.

Same assay, conditions: recombinant N terminal 6-His tagged full length human 11βHSD1; cortisone 160 nM; 25 minutes at 37° C.

First: CCCSc1nc(N2CCC[C@@H](CC(=O)OC)C2)ncc1C(=O)NC1CCCCC1 [Example 19, (S)-Methyl 2-(1-(5-(cyclohexylcarbamoyl)-4-(propylthio)pyrimidin-2-yl)piperidin-3-yl)acetate]
Second: CSc1ncc(C(=O)N[C@H]2C3CC4CC2C[C@@](O)(C4)C3)c(C2CC2)n1 [Example 11, 4-Cyclopropyl-N-[(2r,5s)-5-hydroxyadamantan-2-yl]-2-methylsulfanyl-pyrimidine-5-carboxamide]
The IC50 of the first is 5-fold lower: 14 nM for the first, 70 nM for the second. The first is the more potent here.
